Source: patent US20250346943A1, “DEGRADER COMPOUNDS OF QSOX1 mRNA” (UNIVERSITY OF FLORIDA RESEARCH FOUNDATION, INCORPORATED, priority 2022, published 2025)

Legend:
Type in all cases: cell-based, human
SQSTM1 mRNA = SQSTM1 mRNA abundance by RT-qPCR in MDA-MB-231 cells; conditions: 48 h treatment
Method: (§1) Analysis of mRNA Abundance by RT-qPCR. Unless stated otherwise, all RT-qPCR experiments were performed to measure nascent RNA levels by using Click-it Nascent RNA Capture Kit (Cat #C10365, Thermo Fisher) per the manufacturer's protocols. Briefly, cells were treated with 0.2 mM of ethynyl uridine (EU) in growth medium for 16 h, after which the medium was replaced with fresh growth medium lacking EU. Compound or ASO treatment was performed at the same time of initial EU treatment, and compounds were replenished after replacing the medium to remove EU. Total RNA was extracted by using a Zymo Quick-RNA Miniprep Kit as per manufacturer's protocol with DNase treatment. The click reaction and pull-down of nascent RNA were performed as described in “In Vitro Chemical-Crosslinking and Isolation by Pull-down (Chem-CLIP) with Fluorescently Labeled RNA”. Reverse transcription (RT) was performed by using 300 ng total RNA and a QScript cDNA synthesis kit (QuantaBio) per manufacturer's protocols qPCR was performed in 384-well plates by using Power SYBR Green Master Mix (Life Technologies) on a QuantStudioS™ Cycler (Applied Biosystems) using the “Comparative Ct with Melt” method.

QSOX-1b = assay: QSOX1-b protein abundance by Western blotting in MDA-MB-231 cells
Method: Measuring Protein Abundance by Western Blotting. MDA-MB-231 cells were seeded in 6-well plates at ˜50% confluency and treated with vehicle (DMSO) or compound as described above but without EU treatment. After 16 h, the compound-containing growth medium was removed and replaced with fresh medium containing compound (re-dosing). After an additional 32 h incubation, total protein was harvested (48 h total treatment time). The cells were then washed twice with cold 1×DPBS, and total protein was harvested by using Mammalian Protein Extraction Reagent (M-PER, Thermo Scientific) per the manufacturer's protocol. Protein concentration was quantified by using BCA Protein Assay Kit (Pierce), and the proteins were separated by using 10% SDS-polyacrylamide gel (20 μg protein per lane). After gel electrophoresis in 1× Running Buffer (50 mM MOPS, 50 mM Tris-base, pH 7.5, 1 mM EDTA, and 0.1% (w/v) SDS) at 120 V for 1 h, the proteins were transferred to a PVDF membrane (0.45 μm, Cytiva) at 300 mA for 1 h in 1× Transfer Buffer (25 mM Bicine, 25 mM Tris-base, pH 7.5, 1:4 MeOH:H2O). The membrane was blocked with 5% (w/v) non-fat dry milk in TBST (1×TBS containing 0.1% (v/v) Tween-20) for 1 h at room temperature. […] Expression levels of proteins were quantified based on band intensity by using ImageJ. […]

QSOX1 mRNA = assay: Chem-CLIP pull-down of QSOX1 mRNA in live cells, RT-qPCR (dose and time dependence)
Method: Chemical-Cross-linking and Isolation by Pull-down (Chem-CLIP) in Live Cells. MDA-MB-231 cells were seeded in 60 mm dishes and allowed to reach ˜80% confluency. The cells were then treated with 20 μM of compound in growth medium and incubated for 16 h. Cells were washed with 1×DPBS and irradiated with UV light for 10 min. Total RNA was harvested using a Zymo Quick-RNA Miniprep Kit per the manufacturer's protocol with DNase treatment. Total RNA was chemically fragmented by using an NEBNext Magnesium RNA Fragmentation Module (E6150S) per manufacturer's protocol to achieve final lengths between 100-150 nucleotides Pull-down of cross-linked RNAs was performed by adding 10 μg of total RNA to 100 μL of azide-disulfide agarose beads (Click Chemistry Tools, 1238-2) pre-washed with 25 mM HEPES, pH 7.0. The click reaction and pull-down were completed as described in “In Vitro Chemical-Crosslinking and Isolation by Pull-down (Chem-CLIP) with Fluorescently Labeled RNA”. The pulled down RNA was purified by RNA CleanXP beads (Beckman, A66514) per manufacturer's protocol.
For dose response studies, cells were treated with varying concentration of F1 (1, 5, 20 μM) as described above for 16 h. For time course studies, cells were treated with 20 μM of for 1, 4, 8, or 16 h. With the exception of compound concentration or time at which total RNA was harvested, the remaining steps of the protocol were completed as described above for both concentration- and time-dependent studies.
as §1

[1] = test system: DNA and proteins in MDA-MB-231 cells; assay: Cross-linking to RNA, DNA and proteins in live cells with clickable TAMRA azide; conditions: 16 h, TAMRA imaging
Method: Cross-linking to RNA, DNA, and Proteins in Live Cells with Clickable TAMRA Azide. MDA-MB-231 cells were seeded in 100 mm dishes and allowed to reach ˜80% confluency. The cells were then treated with […] of compound in growth medium and incubated for 16 h. Cells were washed with 1×DPBS and irradiated with UV light for 10 min. Total RNA was harvested using a Zymo Quick-RNA Miniprep Kit per the manufacturer's protocol with DNase and proteinase treatment. Total DNA was harvested using a Zymo Quick-DNA Miniprep Kit per the manufacturer's protocol with RNase and proteinase treatment. Total protein was harvested by using Mammalian Protein Extraction Reagent (M-PER, Thermo Scientific) per the manufacturer's protocol with RNase and DNase treatment. Each sample (4 μg for RNA or DNA, 25 μg for proteins) was then incubated in a “click reaction mixture” with TAMRA azide as described in In Vitro Screening of Functionalized Compounds with Clickable TAMRA Azide. DNA and RNA samples were separated by using a 1.0% (w/v) and 1.5% (w/v) agarose gel in TBE buffer, respectively. Protein samples were loaded to 10% SDS-polyacrylamide gel. All samples were first imaged with TAMRA channel by using a Typhoon FLA 9500 variable mode imager (GE Healthcare Life Sciences). […]

## CCOC(=O)C1=C(Nc2ccccc2)S/C(=C\c2ccc(OCCOCCOCCOCCNC(=O)CCC(=O)N(C)[C@H]3CC[C@@H](c4ccc(Cl)c(Cl)c4)c4ccccc43)c(O)c2)C1=O [Compound F1-RIBOTAC]
SQSTM1 mRNA
  effect on SQSTM1 mRNA levels: No significant effect
QSOX-1b
  effect on QSOX-1b levels: no effect

## C#CCCC1(CCC(=O)N(C)[C@H]2CC[C@@H](c3ccc(Cl)c(Cl)c3)c3ccccc32)N=N1 [Compound F1]
QSOX1 mRNA; 5 μM, 16 h incubation
  enrichment of QSOX1 mRNA: ~6 fold
QSOX1 mRNA; 20 μM, 1 h incubation
  enrichment of QSOX1 mRNA: no enrichment
QSOX1 mRNA; 20 μM, 4 h
  enrichment of QSOX1 mRNA: ~4 fold
QSOX1 mRNA; 20 μM, 8 h and 16 h time points
  enrichment of QSOX1 mRNA: plateauing
QSOX1 mRNA; 20 μM, 16 h incubation
  enrichment of QSOX1 mRNA: ~12 fold
[1]
  enrichment of protein or DNA targets compared to the control probe: No significant enrichment
